Measurements published in PubChem BioAssay (NCI).
Where “and” joins values, the source holds several entries; their conditions need not be identical. Identical values can stand only once.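 In this assay, cells in 96-well plates receive the compound at five concentrations for 48 hours. Endpoints are linearly interpolated between the surrounding concentrations. Here, GI50 denotes the concentration required for 50% inhibition of growth. TGI marks complete inhibition of growth.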

Experiments:
Test in all cases: inhibition of tumour cell growth, NCI panel, 48 h
BT-549 breast = system: BT-549 breast
DU-145 prostate = system: DU-145 prostate
HS 578T breast = system: HS 578T breast
PC-3 prostate = system: PC-3 prostate

Compound | GI50 (BT-549 breast) | TGI (BT-549 breast) | GI50 (DU-145 prostate) | TGI (DU-145 prostate) | GI50 (HS 578T breast) | TGI (HS 578T breast) | GI50 (PC-3 prostate) | TGI (PC-3 prostate)
O=C(c1ccccc1)c1c(NCC(O)CN2CCCC2)n(Cc2ccccc2)c(=O)n(Cc2ccccc2)c1=O (centres undefined) | 13.1 µM | 27 µM | 17.8 µM | 34.7 µM | 16.2 µM | 37.8 µM | 17.5 µM | 36.6 µM
CN1CCc2cc3c(cc2C1O)OCO3 (centres undefined) | – | – | 16.7 µM and > 100 µM | 30.8 µM and > 100 µM | – | 82.3 µM and > 100 µM | 17 µM and > 100 µM | 42.7 µM and > 100 µM
COc1cc(-c2nn3c(/C=C4/C(=O)Nc5ccccc54)c(-c4ccc(C)cc4)nc3s2)cc(OC)c1OC | 4.69 µM | 38.1 µM | 2.55 µM | > 100 µM | 0.505 µM | 7.49 µM | 81.1 µM | > 100 µM
CC(=O)N1CCN(C2=Nc3ccccc3CO2)C1=S | 40.1 µM | > 100 µM | > 100 µM | > 100 µM | – | – | 87.6 µM | > 100 µM
O=C(c1ccc2ccccc2c1O)N1CCCCC1 | – | – | – | > 100 µM | – | > 100 µM | – | > 100 µM
Nc1ncnc2c1ncn2C1OC(COP(=O)(O)CP(=O)(O)O)C(O)C1O (centres undefined) | – | > 100 µM | – | > 100 µM | – | > 100 µM | – | > 100 µM
O=P([O-])(O)OP(=O)([O-])O.[NH-][C@H]1CCCC[C@@H]1[NH-].[OH-].[OH-].[Pt+4] | 24.3 µM | 47.9 µM | 33.3 µM | > 100 µM | 36.1 µM | 93.1 µM | 25.2 µM | 68.2 µM
C=CC(=O)Nc1ccc(Nc2nccc(-c3ccc(N4CCCC4)c(C#N)c3)n2)cc1 | > 25 µM | > 25 µM | 14.1 µM | > 25 µM | 5.15 µM | > 25 µM | 20.9 µM | > 25 µM
COc1cc2c(/C=N\N=C(N)N)c(Cl)[nH]c2cc1C | 13.2 µM | 27.8 µM | – | – | 10.8 µM | 32.6 µM | 6.54 µM | 19.5 µM
CC(C)[C@](O)(c1ccc2cc(OC(F)F)c(OC(F)F)cc2c1)c1cn[nH]n1 | 15.6 µM and 13.3 µM | 31.1 µM and 28.5 µM | 19.1 µM and 16.4 µM | 45.6 µM and 32 µM | 22.1 µM and 15.4 µM | 82.4 µM and 51.2 µM | 17.5 µM and 14.2 µM | 35.4 µM and 33.4 µM
COc1cccc(C2CC(c3cc(OC)c(OC)c(OC)c3)=NN2)c1 (centres undefined) | 3.35 µM | 19.1 µM | – | – | 15.5 µM | 49.4 µM | 7.26 µM | 45.9 µM
CC(C)=CCN=C(N)N | – | > 100 µM | – | > 100 µM | – | > 100 µM | – | > 100 µM
CCCN(CCC)CCCNCc1cc(I)cc(C)c1O | 12.3 µM | 24.8 µM | 19.4 µM | 42 µM | 11.1 µM | 24.6 µM | 15.1 µM | 28.4 µM
CO[C@H](C(=O)[C@@H](O)[C@@H](C)O)[C@@H]1Cc2cc3cc(O[C@H]4C[C@@H](O[C@H]5C[C@@H](O)[C@H](O)C(C)O5)[C@H](O)C(C)O4)c(C)c(O)c3c(O)c2C(=O)[C@H]1O[C@H]1C[C@@H](O[C@H]2C[C@@H](O[C@H]3C[C@@H](OC)[C@H](O)C(C)O3)[C@@H](O)C(C)O2)C(O)(O)C(C)O1 (some centres undefined) | 0.107 µM | 1.64 µM | 0.237 µM | > 25 µM | 0.118 µM | > 7.66 µM | 0.396 µM | > 25 µM
O=C(O)CSCc1cccc2ccccc12 | – | > 100 µM | – | > 100 µM | – | > 100 µM | – | > 100 µM
O=C(/C=C/c1ccc(B(O)O)cc1)/C=C/c1ccc(B(O)O)cc1 | 1.55 µM | 3.35 µM | 4.63 µM | 14.9 µM | 1.54 µM | 5.57 µM | 3.31 µM | 14.3 µM
Cc1nc2ccc(CN(C)c3ccc(C(=O)N[C@@H](CCC(=O)O)C(=O)O)s3)cc2c(=O)[nH]1 | – | > 100 µM | – | > 100 µM | – | > 100 µM | – | > 100 µM
COc1cc(/C(Cl)=C/C=C/C(=O)c2c(C)[n+]([O-])c3ccc(Cl)cc3[n+]2[O-])cc(OC)c1OC | 6.47 µM | 39.4 µM | 11.8 µM | > 50 µM | 6.47 µM | 35.7 µM | 3.58 µM | > 50 µM
Cc1ccccc1NC(=S)Nc1ccccn1 | > 100 µM | > 100 µM | > 100 µM | > 100 µM | > 100 µM | > 100 µM | > 100 µM | > 100 µM
Nc1ccn(C2OC(CO)C(O)C2F)c(=O)n1 (centres undefined) | > 5000 µM | > 5000 µM | > 5000 µM | > 5000 µM | > 5000 µM | > 5000 µM | > 5000 µM | > 5000 µM

Compound | GI50 (BT-549 breast) | TGI (BT-549 breast) | GI50 (DU-145 prostate) | TGI (DU-145 prostate) | GI50 (HS 578T breast) | TGI (HS 578T breast) | GI50 (PC-3 prostate) | TGI (PC-3 prostate)
C=C(Cn1c(=O)c2ccccc2c2ccccc21)c1ccc(C(=O)Nc2ccccc2N)cc1 | 14.8 µM | 97.7 µM | > 45.9 µM | > 100 µM | 58.2 µM | > 100 µM | 4.37 µM | > 79.4 µM
C=C1C(=O)O[C@H]2[C@H]1CC/C(CNC(=O)/C=C/c1ccc(Br)cc1)=C\CC[C@@]1(C)O[C@@H]21 | 1.14 µM | 2.95 µM | 0.743 µM | 2.02 µM | 1.44 µM | 4.43 µM | 1.47 µM | 3.24 µM
COc1ccc2c(c1)C(=O)c1c-2n(CCCN)c(=O)c2ccccc12 | 0.82 µM | 2.63 µM | 0.0179 µM | 0.293 µM | 0.649 µM | 3.09 µM | 0.206 µM | 1.26 µM
CC/C(Cc1ccccc1)=C(\c1ccc(OCCN2CCCCCC2)cc1)c1ccc(OC(=O)NCc2ccccc2)cc1 | 6.74 µM | 14.1 µM | 3.52 µM | 10.3 µM | 2.66 µM | 11.8 µM | 2.3 µM | 8.36 µM
COc1ccc(C#Cc2ccccc2C#CCCCCO)cc1 | 21.1 µM | 46.1 µM | 21.3 µM | 52.6 µM | 28.3 µM | 65.1 µM | 21.9 µM | 42.6 µM
O=S(=O)(Nc1ncccn1)c1ccc(N=Nc2ccc(O)c3ncccc23)cc1 | 10.7 µM | 27 µM | 12 µM | > 100 µM | 3 µM | 13.1 µM | 15.6 µM | > 100 µM
CN1C(=O)c2c(ccc3c2OCO3)C2C(O)Cc3cc4c(cc3C21)OCO4 (centres undefined) | – | > 100 µM | – | 43.1 µM | – | > 100 µM | – | > 100 µM
COc1cccc([C@H]2CC(=O)c3cc4c(cc3N2)OCO4)c1 | – | – | 0.067 µM | 13.8 µM | – | 83.3 µM | 0.0927 µM | > 100 µM
O=[N+]([O-])c1ccc(Nc2ccccc2-c2ccccc2)c2nonc12 | 11.5 µM | 28.8 µM | 28.2 µM | > 100 µM | 15.2 µM | 62.8 µM | 13.6 µM | 66.2 µM
CCSc1nnc2c(-c3ccccc3)n[nH]c2n1 | – | > 100 µM | – | > 100 µM | – | > 100 µM | – | > 100 µM
COc1cccc2c1C(=O)c1c(O)c3c(c(O)c1C2=O)CC(O)(C(C)=O)CC3OC1CC(N)C(O)C(C)O1 (centres undefined) | 0.0458 µg/mL | 0.459 µg/mL | 0.0208 µg/mL | 1.65 µg/mL | 0.0481 µg/mL | 0.421 µg/mL | 0.0336 µg/mL | 0.545 µg/mL
NS(=O)(=O)c1ccc(NC(=O)c2ccc(NC3=C(Cl)C(=O)N(Cc4ccccc4)C3=O)cc2)cc1 | – | – | 17 µM | 30.6 µM | 1.64 µM | 4.5 µM | 12.8 µM | 34 µM
CC1=C([Se]CC(OC(=O)[C@@H](CSSC(C)(C)C)NC(=O)OC(C)(C)C)C(=O)NC(C)(C)C)C(=O)c2ccccc2C1=O (some centres undefined) | 1.24 µM | 2.5 µM | 1.81 µM | 3.22 µM | 1.31 µM | 2.69 µM | – | –
Cc1cc(C)nc(NC(N)=NCCc2ccccc2)n1 | 3.92 µM | > 100 µM | 3.4 µM | > 100 µM | 4.41 µM | 54.9 µM | 3.88 µM | > 100 µM
COc1cc(C(=O)OCCCCCCCCCCC[P+](c2ccccc2)(c2ccccc2)c2ccccc2)ccc1O | 0.271 µM | 1.26 µM | 0.46 µM | 1.58 µM | 0.549 µM | 5.25 µM | – | –
C[n+]1c(/C=C\C=C\N2CCCCC2)sc2ccccc21 | 0.261 µM | 3.5 µM | 0.598 µM | 17.1 µM | 1.11 µM | 22.5 µM | 0.237 µM | 2.97 µM
CNC(=O)c1cc(COc2nnc(Nc3ccc(Cl)cc3)c3ccoc23)ccn1 | 3.53 µM and > 10 µM | 16.6 µM and > 10 µM | 9.43 µM and > 10 µM | 26 µM and > 10 µM | 2.41 µM and 4.62 µM | 10.9 µM and > 10 µM | 9.39 µM and > 10 µM | > 57.7 µM
Cc1ccc(C(=O)N(CCCN)[C@@H](c2nc3cc(Cl)ccc3c(=O)n2Cc2ccccc2)C(C)C)cc1 | 0.043 µM and 0.0103 µM | 2.94 µM and 1.67 µM | < 0.01 µM | – | < 0.01 µM | – | < 0.01 µM | 2.32 µM and 1.76 µM
O=[As](O)(O)c1ccc(NCc2ccccc2)cc1 | – | > 100 µM | – | > 100 µM | – | > 100 µM | – | > 100 µM
